Legend:
[1] = target: T1, eeAChE (electric eel acetylcholinesterase) (Electrophorus electricus, UniProt O42275); experiment: eeAChE inhibition, Ellman's method; assay type: biochemical
T1 construct: Eel acetylcholinesterase (eeAChE, E.C. 3.1.1.7, from Electrophorus electricus); purchased Sigma Aldrich
Experimental: (§2) The eeAChE and eqBChE inhibitory activities of the compounds under study were determined following the Ellman’s method [32, 33]
(§3) Substrate solutions (ATCI or BCTI) were prepared in deionized water (conductivity ˂ 0.1 µS.cm-
(§4) Evaluation of eel acetylcholinesterase and equine butyrylcholinesterase inhibitory
(§5) The eeAChE and eqBChE inhibitory activities of the compounds under study were evaluated following the Ellman’s method [1, 2]. Briefly, a mixture containing sodium phosphate buffer, enzyme (final concentration: eeAChE 0.05 U/mL and eeBChE 0.05 U/mL), DTNB (final concentration: 400 µM) and the test compounds/reference inhibitors were preincubated for 5 minutes at 30 °C in a 96-well microplate (BRANDplates, pureGradeTM, BRAND GMBH, Wertheim, Germany). In control experiments, sodium phosphate buffer was used instead of the
(§6) ºC in a microplate reader (BioTek Synergy HT from BioTek Instruments, Winooski, VT, USA).
(§7) The rates of the substrate enzymatic hydrolysis were determined, normalized and plotted against the respective inhibitor concentration. IC50 values were obtained from the dose-response curves
(§8) and were expressed as mean ± standard deviation. IC50 values were determined in at least three
(§9) independent experiments, each performed at least in triplicates.

[2] = target: T2, eqBChE (equine butyrylcholinesterase) (Equus caballus, UniProt P81908); experiment: biochemical
T2 construct: butyrylcholinesterase (eqBuChE, E.C. 3.1.1.8, from equine serum); purchased Sigma Aldrich; host or cells: equine serum
T2 sequence (P81908 whole entry): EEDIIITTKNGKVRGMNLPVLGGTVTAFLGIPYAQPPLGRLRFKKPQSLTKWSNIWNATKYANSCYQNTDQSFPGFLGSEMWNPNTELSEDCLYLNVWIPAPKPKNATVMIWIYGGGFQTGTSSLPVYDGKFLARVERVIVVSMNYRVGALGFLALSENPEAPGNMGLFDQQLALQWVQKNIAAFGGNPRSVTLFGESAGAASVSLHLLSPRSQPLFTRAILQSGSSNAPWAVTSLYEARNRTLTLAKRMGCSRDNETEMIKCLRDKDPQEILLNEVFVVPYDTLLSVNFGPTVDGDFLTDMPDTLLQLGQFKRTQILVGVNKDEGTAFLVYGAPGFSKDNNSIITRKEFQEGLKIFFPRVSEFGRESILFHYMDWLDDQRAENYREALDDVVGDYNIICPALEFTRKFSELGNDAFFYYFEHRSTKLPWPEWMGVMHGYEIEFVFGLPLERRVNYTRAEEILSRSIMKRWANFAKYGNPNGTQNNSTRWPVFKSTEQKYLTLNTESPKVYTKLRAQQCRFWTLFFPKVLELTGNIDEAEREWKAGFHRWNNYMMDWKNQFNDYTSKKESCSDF
Experimental: as §2, §3, §4, §5, §6, §7, §8, §9

hAChE = target: T3, hAChE (Homo sapiens, UniProt P22303); experiment: Recombinant hAChE inhibition, Ellman's buffer; assay type: biochemical
T3 construct: made in house
T3 sequence (P22303 32-574 limits assumed): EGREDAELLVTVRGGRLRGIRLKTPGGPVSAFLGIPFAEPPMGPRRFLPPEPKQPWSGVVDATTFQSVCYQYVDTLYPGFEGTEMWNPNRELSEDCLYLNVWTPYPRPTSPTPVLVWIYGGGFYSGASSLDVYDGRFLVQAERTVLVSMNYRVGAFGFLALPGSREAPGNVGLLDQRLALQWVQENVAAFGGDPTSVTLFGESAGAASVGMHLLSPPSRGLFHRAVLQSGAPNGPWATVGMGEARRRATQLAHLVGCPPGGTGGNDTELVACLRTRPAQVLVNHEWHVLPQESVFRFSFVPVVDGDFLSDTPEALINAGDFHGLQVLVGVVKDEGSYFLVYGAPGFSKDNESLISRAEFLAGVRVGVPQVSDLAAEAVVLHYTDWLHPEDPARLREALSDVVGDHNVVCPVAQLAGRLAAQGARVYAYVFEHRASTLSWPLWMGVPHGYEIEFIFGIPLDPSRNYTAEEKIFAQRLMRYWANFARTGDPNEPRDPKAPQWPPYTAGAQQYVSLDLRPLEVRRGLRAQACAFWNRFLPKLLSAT
Experimental: (§1) Recombinant hAChE and hBChE were produced and purified as previously described. Test compounds were dissolved in methanol 100 % to prepare stock solutions at 40 mM and subsequently diluted in water to reach the desired concentrations. Recombinant hAChE and hBChE activities were measured in presence of appropriate compound concentrations by spectrophotometry at 412 nm and 25 °C in a 1 mL cuvette containing Ellman’s buffer (0.5 mM DTNB, 0.1% BSA, 0.1 M phosphate, pH 7.4). Measurements were performed at least in duplicate for each tested concentration and final methanol concentrations were kept below 5%.

hBChE = target: T4, hBChE (Homo sapiens, UniProt P06276, N45Q/N483Q/N509Q/N514Q); experiment: Recombinant hBChE inhibition, Ellman's buffer; assay type: biochemical
T4 construct: made in house
T4 sequence (P06276 29-557 N45Q/N483Q/N509Q/N514Q limits assumed): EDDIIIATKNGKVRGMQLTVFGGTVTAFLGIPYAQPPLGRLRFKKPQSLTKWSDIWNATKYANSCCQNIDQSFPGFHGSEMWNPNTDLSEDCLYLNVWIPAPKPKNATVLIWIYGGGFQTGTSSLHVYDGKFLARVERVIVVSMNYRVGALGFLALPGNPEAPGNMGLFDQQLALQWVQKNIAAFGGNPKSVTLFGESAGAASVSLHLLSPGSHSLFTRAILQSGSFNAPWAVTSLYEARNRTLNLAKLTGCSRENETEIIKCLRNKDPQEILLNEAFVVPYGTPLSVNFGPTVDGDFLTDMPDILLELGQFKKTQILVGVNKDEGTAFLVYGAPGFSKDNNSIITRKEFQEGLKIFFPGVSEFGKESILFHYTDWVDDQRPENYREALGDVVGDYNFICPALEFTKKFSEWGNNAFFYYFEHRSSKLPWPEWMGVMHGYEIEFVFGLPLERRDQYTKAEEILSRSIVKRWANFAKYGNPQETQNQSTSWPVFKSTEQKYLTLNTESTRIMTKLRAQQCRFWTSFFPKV
Experimental: as §1

hMAO-A = target: T5, hMAO-A (Homo sapiens, UniProt P21397); experiment: hMAO-A inhibition, kynuramine substrate; assay type: biochemical
T5 construct: purchased Sigma Aldrich; host or cells: insect cells (BTI-TN-5B1-4), baculovirus
T5 sequence (P21397 1-527): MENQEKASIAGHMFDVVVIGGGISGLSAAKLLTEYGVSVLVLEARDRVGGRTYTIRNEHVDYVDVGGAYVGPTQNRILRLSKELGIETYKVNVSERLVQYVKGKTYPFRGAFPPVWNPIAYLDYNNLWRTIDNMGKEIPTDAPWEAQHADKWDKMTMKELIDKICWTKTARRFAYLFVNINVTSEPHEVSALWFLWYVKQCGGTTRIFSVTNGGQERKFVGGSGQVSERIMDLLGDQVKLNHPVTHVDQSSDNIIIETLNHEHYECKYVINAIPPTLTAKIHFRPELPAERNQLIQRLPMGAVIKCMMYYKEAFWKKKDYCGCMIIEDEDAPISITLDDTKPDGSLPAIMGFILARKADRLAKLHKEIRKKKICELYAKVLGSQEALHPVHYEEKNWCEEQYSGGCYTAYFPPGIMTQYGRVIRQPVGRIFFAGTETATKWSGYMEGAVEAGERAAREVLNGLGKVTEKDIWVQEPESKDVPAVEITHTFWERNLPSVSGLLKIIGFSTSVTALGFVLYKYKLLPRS
Experimental: (§10) The inhibitory activity of lipophilic TPP^+ cations on hMAO-A and hMAO-B was studied using an experimental protocol described elsewhere [29, 40]
(§11) Evaluation of human monoamine oxidase (hMAO) inhibitory activity The human monoamine oxidase (hMAO) inhibitory outline was assessed in microsomal MAO isoforms prepared from insect cells (BTI-TN-5B1-4) infected with recombinant baculovirus containing cDNA inserts for hMAO-A or hMAO-B an d by measuring the enzymatic conversion rates of kynuramine into 4-hydroxyquinoline. The appropriate amounts of hMAO-A and hMAO-B were adjusted to obtain, in our experimental conditions, the same maximum
(§12) All assays were performed in sodium phosphate buffer solution 50 mM pH 7.4.
(§13) The compounds under study and reference inhibitors were pre-incubated at 37 °C for 10
(§14) concentration: 2×Km) in 96-well microplates (BRANDplates, pureGradeTM, BRAND GMBH, Wertheim, Germany). Then, the reaction was started with the addition of hMAO-A or hMAO-B.
(§15) Initial velocities were determined spectrophotometrically in a microplate reader (BioTek Synergy HT from BioTek Instruments, Winooski, VT, USA) at 37 °C by measuring the formation of 4-
(§16) The initial velocities, obtained from the linear phase of product formation, were normalized and plotted against the respective inhibitor concentration. IC50 values were obtained from dose-response curves and were expressed as mean ± standard deviation. IC50 values were determined from at least three independent experiments, each performed in triplicate.

[3] = Oxygen radical absorbance capacity (ORAC-FL) assay; details: for ROO• radical scavenging: ORAC-FL; for ORAC-FL Index: relative Trolox equivalent ORAC value
[4] = tested on: differentiated SH-SY5Y cells; experiment: Neutral red (NR) uptake assay (cytotoxicity); assay type: cell-based, human; details: 24 h; for effect on NR uptake: increasing concentrations up to 100 µM
Experimental: Controls were treated with culture media containing 0.1% DMSO. Cell viability was estimated using two different methods: resazurin reduction assay and NR uptake assay.
To avoid phenotypic changes, the cells used for all experiments were taken between 19th and 28th passages. Cells were differentiated as described previously by Fernandes et al. [6]. Briefly, SH-SY5Y cells were seeded onto 96-well plates at a density of 25,000 cells/cm2 in cell culture medium with trans-retinoic acid (RA) (final concentration of 10 µM) and incubated for 3 days at
The cell culture medium was then removed and replaced with medium supplemented with 12-O-tetradecanoylphorbol-13-acetate (TPA) (final concentration 80 nM), and cells were incubated for 3 days. Stock solutions of RA (10 mM) and TPA (80 µM) were prepared in DMSO.
The neutral red (NR) uptake assay is based on the ability of viable cells to incorporate the supravital dye NR and retain it inside the lysosomes [11]. NR uptake assay was performed as previously described by Fernandes et al. [12] Briefly, after the 24 h incubation periods with the test compounds, the cell culture medium was removed and NR solution (50 mg/mL) in fresh cell culture medium was added. Differentiated SH-SY5Y cells and Caco-2 cells were incubated for 2
culture medium was removed and replaced by ethanol absolute/distilled water (1:1) with 5 % acetic acid to liberate the dye from the viable cells. The absorbance was measured at 540 nm in a
multiwell microplate reader (PowerWave XS from BioTek Instruments). The results were
expressed as the percentage of NR uptake relative to that of the control (non-treated) cells [NR
uptake (% of control)] ± standard error mean (SEM) of at least three independent experiments.
Stock solutions of the test compounds (10 µM) were prepared in DMSO and diluted in

[5] = Chromatographic hydrophobicity index by gradient RP-HPLC at pH 2.3
Experimental: Chromatographic hydrophobicity indexes (CHIs) at pH 2.3 were determined using an experimental protocol described elsewhere [45, 46] and included in the supplementary information.
Evaluation of the chromatographic hydrophobicity index
Chromatographic hydrophobicity indexes (CHIs) values were determined using the
retention times (tR) of samples and a mixture of reference compounds. The data was acquired on
a Shimadzu high-performance liquid chromatograph SPD-M20A system (Shimadzu, Kyoto,
Japan) with a Luna C18 (2) column (Phenomenex, CA, USA) 150×4.6 mm, 5 µm. In CHI
determinations at pH 2.3, mobile phase A was aqueous solution of acetic acid 1 % (v/v) (pH 2.3),
and mobile phase B was acetonitrile. The following gradient program was applied: 1 mL/min
Calibration plots were obtained using a mixture of the following compounds:
paracetamol, theophylline, caffeine, benzimidazole, colchicine, carbamazepine, indole,
propiophenone, butyrophenone, valerophenone, and heptanophenone (Table S1, Figure S2).
hydrophobicity index (CHI) values were calculated as previously described [13, 14].

hMAO-B = target: T6, hMAO-B (Homo sapiens, UniProt P27338); experiment: biochemical; set-up: purchased Sigma Aldrich; host or cells: insect cells (BTI-TN-5B1-4), baculovirus
T6 sequence (P27338 1-520): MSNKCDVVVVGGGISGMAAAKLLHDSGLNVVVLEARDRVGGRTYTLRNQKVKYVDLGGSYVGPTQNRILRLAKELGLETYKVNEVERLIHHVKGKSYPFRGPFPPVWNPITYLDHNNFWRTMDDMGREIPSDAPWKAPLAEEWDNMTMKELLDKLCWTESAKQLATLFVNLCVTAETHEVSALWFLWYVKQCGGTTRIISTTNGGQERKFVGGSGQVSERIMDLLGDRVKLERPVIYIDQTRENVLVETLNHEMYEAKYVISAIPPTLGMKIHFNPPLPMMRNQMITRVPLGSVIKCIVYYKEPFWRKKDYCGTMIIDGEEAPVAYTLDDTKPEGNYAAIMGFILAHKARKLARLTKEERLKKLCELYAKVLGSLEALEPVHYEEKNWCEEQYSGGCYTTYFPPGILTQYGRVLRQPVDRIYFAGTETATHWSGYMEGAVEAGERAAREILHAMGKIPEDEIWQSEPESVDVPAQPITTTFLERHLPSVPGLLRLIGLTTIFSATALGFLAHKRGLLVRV
Experimental: as §10, §11, §12, §13, §14, §15, §16

T1 sequence (O42275 24-633): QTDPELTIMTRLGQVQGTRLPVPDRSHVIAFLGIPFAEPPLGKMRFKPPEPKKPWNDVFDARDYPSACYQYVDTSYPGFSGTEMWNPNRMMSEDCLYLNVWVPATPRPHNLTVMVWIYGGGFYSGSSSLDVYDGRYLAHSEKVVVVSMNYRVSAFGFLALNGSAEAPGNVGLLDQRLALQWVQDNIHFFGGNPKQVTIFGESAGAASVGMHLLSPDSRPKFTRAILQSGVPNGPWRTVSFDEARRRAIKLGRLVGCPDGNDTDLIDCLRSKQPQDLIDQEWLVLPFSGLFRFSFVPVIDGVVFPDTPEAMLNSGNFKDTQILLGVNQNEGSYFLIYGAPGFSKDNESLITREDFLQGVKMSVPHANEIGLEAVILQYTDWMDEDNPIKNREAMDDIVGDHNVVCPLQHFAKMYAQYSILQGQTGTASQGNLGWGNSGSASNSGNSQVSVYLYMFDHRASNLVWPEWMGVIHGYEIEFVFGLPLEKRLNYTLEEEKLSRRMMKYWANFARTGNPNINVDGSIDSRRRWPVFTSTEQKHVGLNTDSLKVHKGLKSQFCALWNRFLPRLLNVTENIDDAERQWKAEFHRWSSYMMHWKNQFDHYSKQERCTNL

In the case of `O=C(/C=C/C=C/c1ccc2c(c1)OCO2)NCCCC[P+](c1ccccc1)(c1ccccc1)c1ccccc1.[Br-]` [Compound 2, (4-((2E,4E)-5-(Benzo[d][1,3]dioxol-5-yl)penta-2,4-dienamido)butyl)triphenylphosphonium bromide], the IC50 [1] is reported as 6.39 ± 0.28 µM, the IC50 [2] is reported as 0.0282 ± 0.0014 µM and the “SI (1): eqBChE selectivity index = IC50(eeAChE)/IC50(eqBChE)” value [2] is reported as 226. For the same molecule, the IC50 (hAChE) was 11 ± 1 µM, the IC50 (hBChE) was 0.2 ± 0.04 µM and the “SI (2): hBChE selectivity index = IC50(hAChE)/IC50(hBChE)” value (hBChE) was 55. The IC50 (hMAO-A) was 0.888 ± 0.022 µM, the “ROO• radical scavenging” value [3] was “unable to scavenge ROO• radicals” and the “effect on NR uptake” value [4] was “remained constant”. The CHI [5] was 42.8, the IC50 (hMAO-B) was 12.4 ± 1.9 µM and the “SI (3): hMAO-B selectivity index = IC50 (hMAO-A)/IC50 (hMAO-B)” value (“SI (3): hMAO-B selectivity index = IC50” below) (hMAO-B) was 0.07.
In the case of `O=C(/C=C/C=C/c1ccc2c(c1)OCO2)NCCCCCC[P+](c1ccccc1)(c1ccccc1)c1ccccc1.[Br-]` [Compound 3, (6-((2E,4E)-5-(Benzo[d][1,3]dioxol-5-yl)penta-2,4-dienamido)hexyl)triphenylphosphonium bromide], the IC50 [1] is reported as 5.74 ± 0.32 µM, the IC50 [2] is reported as 0.0179 ± 0.0009 µM and the “SI (1): eqBChE selectivity index = IC50(eeAChE)/IC50(eqBChE)” value [2] is reported as 314. For the same molecule, the IC50 (hAChE) was 2 ± 0.2 µM, the IC50 (hBChE) was 3 ± 0.4 µM and the “SI (2): hBChE selectivity index = IC50(hAChE)/IC50(hBChE)” value (hBChE) was 0.67. The IC50 (hMAO-A) was 1.23 ± 0.13 µM, the “ROO• radical scavenging” value [3] was “unable to scavenge ROO• radicals” and the “lysosomal toxicity (NR uptake)” value ([4]; at concentrations above 12.5 µM) was “significant lysosomal toxicity”. The CHI [5] was 45.8, the IC50 (hMAO-B) was 4.64 ± 0.29 µM and the “SI (3): hMAO-B selectivity index = IC50” value (hMAO-B) was 0.26.
For `O=C(/C=C/C=C/c1ccc(O)c(O)c1)NCCCC[P+](c1ccccc1)(c1ccccc1)c1ccccc1.[Br-]` [Compound 4, (4-((2E,4E)-5-(3,4-Dihydroxyphenyl)penta-2,4-dienamido)butyl)triphenylphosphonium bromide], the IC50 [1] was 2.23 ± 0.12 µM, the IC50 [2] was 0.0619 ± 0.0042 µM and the “SI (1): eqBChE selectivity index = IC50(eeAChE)/IC50(eqBChE)” value [2] was 36. For the same molecule, the IC50 (hAChE) was 22 ± 2 µM, the IC50 (hBChE) was 3 ± 0.2 µM and the “SI (2): hBChE selectivity index = IC50(hAChE)/IC50(hBChE)” value (hBChE) was 7.3. The IC50 (hMAO-A) was 5.17 ± 0.54 µM, the “ORAC-FL Index” value [3] was 3.3 ± 0.1 and the “effect on NR uptake” value [4] was “remained constant”. The CHI [5] was 34.4, the IC50 (hMAO-B) was 13.5 ± 1.1 µM and the “SI (3): hMAO-B selectivity index = IC50” value (hMAO-B) was 0.38.
With `O=C(/C=C/C=C/c1ccc(O)c(O)c1)NCCCCCC[P+](c1ccccc1)(c1ccccc1)c1ccccc1.[Br-]` [Compound 5, (6-((2E,4E)-5-(3,4-Dihydroxyphenyl)penta-2,4-dienamido)hexyl)triphenylphosphonium bromide] the IC50 [1] was 2.14 ± 0.06 µM, the IC50 [2] was 0.0341 ± 0.0029 µM and the “SI (1): eqBChE selectivity index = IC50(eeAChE)/IC50(eqBChE)” value [2] was 62. For the same molecule, the IC50 (hAChE) was 9 ± 0.5 µM, the IC50 (hBChE) was 23 ± 2 µM and the “SI (2): hBChE selectivity index = IC50(hAChE)/IC50(hBChE)” value (hBChE) was 0.39. For the same molecule, the IC50 (hMAO-A) was 2.17 ± 0.28 µM, the “ORAC-FL Index” value [3] was 3.1 ± 0.3 and the “effect on NR uptake” value [4] was “remained constant”. The CHI [5] was 37.2, the IC50 (hMAO-B) was 10.9 ± 0.7 µM and the “SI (3): hMAO-B selectivity index = IC50” value (hMAO-B) was 0.20.

From article PMC7926627, “Fine-Tuning the Biological Profile of Multitarget Mitochondriotropic Antioxidants for Neurodegenerative Diseases” (Antioxidants, 2021)
